Measured values reported in patent publication US6245738A, “Cytokine restraining agents” (Trega Biosciences, Inc., priority 1994, dated 2001).
Square brackets hold non-standard residues; d marks the D form. Peptide text beside a SMILES is read from it.

Experiments:
TNF-α [1] = test: Reduction of LPS-induced TNF-α levels in mice (ip peptide), plasma ELISA; format: in vivo, Balb/c female mice; settings: 1 min before 5 mg/kg LPS ip, vs control mice
Description: Balb/c female mice weighing approximately 20 g were placed into two groups, a control group and a treated group. Five mg/kg of LPS in 0.9% saline was administered by intraperitoneal (ip) injection into the control mice. Mice in the treated group were first injected ip with 30 μg EX-2 or 150 μg EX-3 in saline, then, one minute after EX-2 or EX-3 was administered, the mice received LPS as described for the control group.
Blood samples were collected from the orbital sinus of treated and control mice at various times up to four hours after LPS was administered. The plasma was separated by centrifugation at 3000×g for 5 min, then diluted with four volumes of 1× phosphate buffer saline (pH 7.4) containing 1% bovine serum albumin. A 100 μl sample of serum was assayed by ELISA for TNF-α (Genzyme; Cambridge Mass.).
The mean (+/-SEM) TNF-α level in six mice from each group was determined and the percent reduction in TNF levels was calculated.

interleukin-6 (IL-6) = test: Reduction of LPS-induced interleukin-6 levels in mice, IL-6-specific ELISA; format: in vivo, Balb/c mice; settings: 300 μg/mouse (Table I), LPS treated mice; vs control mice
Description: Balb/c mice were grouped and treated as described in Example III, above. Blood samples were obtained from the orbital sinus at various times up to six hours and serum was collected and diluted as described above. A 100 μl aliquot was assayed for IL-6 levels using an IL-6-specific ELISA by a modification of the method of Starnes et al., J. Immunol. 145:4185-4194 (1990), which is incorporated herein by reference.
The mean (+/-SEM) IL-6 level in six mice from each group was determined and the percent reduction in IL-6 was calculated.

LPS-induced lethality [2] = test: Lipopolysaccharide-induced lethality (ip peptide); format: in vivo, adult female Balb/c mice; settings: 11 × 300 μg/mouse ip (3.3 mg total), every 4 hr; 0.6 mg LPS
Description: These experiments were performed based on information reported by Rivier et al., Endocrinology 125:2800-2805 (1989), which is incorporated herein by reference. Adult female Balb/c mice were provided food and water ad libitum. Mice were injected ip every four hours for 40 hr with 30 to 300 μg EX-2 or EX-3 in 0.2 ml saline (treated group) or with 0.2 ml saline, alone (control group) (10 mice per group). Immediately following the first injection, 0.6 mg LPS endotoxin in 0.2 ml saline was administered to each mouse. Following LPS injection, EX-2 or saline was administered to the treated mice or the control mice, respectively, every 4 hr for 36 hr.

[3] = tested on: IL-1β-induced hyperalgesia; test: Interleukin-1β-induced hyperalgesia, paw pressure test; format: in vivo, adult male Sprague-Dawley rats; settings: 1 μg ip, 20 min before intraplantar IL-1β; 2 hr after IL-1
Description: These experiments were performed using a modification of the methods described by Poole et al., Br. J. Pharmacol. 106:489-492 (1992); Follenfant et al., Br. J. Pharmacol. 98:41-43 (1989); and Randall and Sellito, Arch. Internatl. Pharmacodyn. 111:409-419 (1957), each of which is incorporated herein by reference. Adult male Sprague-Dawley rats (175-275 g) were tested for hyperalgesia by a paw pressure technique using variable pressure instrumentation (IITC Life Sciences; Woodland Hills, Calif.). Rats were acclimated to the housing environment and were handled for three days prior to beginning a training session. On the day before the hyperalgesia experiments was to begin, each rat was placed into a sock and two variable paw pressure tests were performed 15 min apart. […] Approximately 5-10% of the rats were non-responders and were eliminated from further experiments.
Animals that responded to the paw pressure were pretreated by ip injection of various concentrations of EX-2 in a volume of 1 ml/kg (treated) or saline, alone (control). After 20 min, 100 μl of IL-1β (1U/100 μl) was administered to rats via intraplantar injection. Two hr after IL-1 administration, rats were subjected to two additional paw pressure tests and the increase in mm Hg of pressure that could be applied to the EX-2-treated rats as compared to the control rats was determined.

[4] = tested on: LPS-induced PMN infiltration in lungs; test: Adult respiratory distress syndrome: PMN count in broncho-alveolar lavage after intratracheal LPS; format: in vivo, male Harlan Sprague-Dawley rats; settings: 100 μg/kg ip at 0, 2 and 4 hr; lavage at 6 hr after intratracheal LPS 5 mg/kg
Description: These experiments were performed using a modification of the methods described by Ulich et al., Am. J. Pathol. 141:61-68 (1992) and by Wheelden et al., Lab. Animals 26:29-37 (1992), each of which is incorporated herein by reference. Male Harlan Sprague-Dawley rats were anesthetized using a mixture of 70 mg/kg ketamine and 6 mg/kg rompun injected ip. A 2-3 cm incision was made in the neck of each anesthetized rat and its trachea was exposed by blunt dissection of the surrounding soft tissue. The rats were suspended on a near vertical slab and intratracheal injections were performed by inserting into the exposed trachea, at a point 1 cm posterior to the larynx, a 25G×1/2 inch needle attached to a 1 cc syringe.
Each rat received 0.5 ml/kg of saline or 0.5 ml/kg of 10 mg/ml (5 mg/kg) LPS endotoxin via slow intratracheal administration. Immediately following administration of the LPS endotoxin, rats were injected ip with 1 ml/kg of either saline (control) or saline containing various concentrations of EX-2 (treated). The rats were maintained in the elevated position for 1-2 min to facilitate distribution of the LPS and saline into the lung. The incisions were closed and the rats were allowed to recover. […]
The total polymorphonuclear leukocytes (PMN; neutrophils) in the broncho-alveolar lavage fluid were counted in the EX-2-treated rats and compared with the number in the control rats.

[5] = tested on: arachidonic acid-induced ear swelling; test: Arachidonic acid-induced ear swelling; format: in vivo, female Balb/c mice; settings: 100 μg/mouse ip, 30 min prior to AA; 60 min after AA application
Description: Experiments were performed using female Balb/c mice weighing 18-23 grams. Saline or 100 μg EX-2 or EX-3 was administered ip, 30 min prior to topical application of arachidonic acid (AA). A 10 μl pipet was used to apply 10 μl AA solution (100 mg/ml ethanol; Calbiochem-Novabiochem; San Diego, Calif.) to the inner and outer surfaces of the right ear of each mouse. Ten μl ethanol, alone, was applied to the inner and outer surface of the left ear of each mouse. Ear thickness was measured with a hand-held spring loaded caliper immediately before and 60 min after AA application. Increase in ear thickness was calculated by subtracting the change observed in the control ear from the change observed in AA-treated ear. The value for each group (saline and control) is the average of the swelling observed in the individual mice in each group. The percent reduction of swelling is based on the swelling observed in the saline control group.

TNF-α [6] = test: LPS-induced TNF-α levels, orally administered peptide (gavage); format: in vivo, Balb/c female mice; settings: 1 min before 0.1 mg LPS ip
Description: The ability of orally administered cytokine restraining agents to reduce LPS-induced TNF-α levels also was examined. Balb/c female mice (20 g) were administered 150 μg or 300 μg EX-2, EX-3, EX-4 or EX-5 in 100 μl saline by gavage. Control mice received 100 μl saline, alone. One minute later, 0.1 mg LPS was administered by ip injection. Samples were collected and TNF-α levels were determined as described in Example III, above.
The mean TNF-α levels in the mice from each group (n=9-20) was determined and the percent reduction in TNF-α levels was calculated.

LPS-induced lethality [7] = test: LPS-induced lethality, orally administered peptide (gavage); format: in vivo, adult female Balb/c mice; settings: 0.6 mg LPS ip
Description: The LPS-induced lethality studies were performed based on information reported by Rivier et al., supra, 1989. Adult female Balb/c mice were provided food and water ad libitum. Mice were administered 150 μg or 300 μg EX-2, EX-3, EX-4 or EX-5 in 100 μl saline by gavage every 4 hr for 40 hr (total doses of 1.65 mg and 3.3 mg, respectively). Control mice received 100 μl saline, alone. Immediately following the first dose of cytokine restraining agent or saline, 0.6 mg LPS in 0.2 ml saline was administered by ip injection.

[8] = 3.3 mg total (300 μg by gavage every 4 hr for 40 hr)

Compound: CCCC[C@H](NC(C)=O)C(=O)N[C@@H](CCC(N)=O)C(=O)N[C@@H](Cc1c[nH]cn1)C(=O)N[C@H](Cc1ccccc1)C(=O)N[C@@H](CCCNC(=N)N)C(=O)N[C@H](Cc1c[nH]c2ccccc12)C(=O)NCC(N)=O [EX-2, Ac-Nle-Gln-His-(D)Phe-Arg-(D)Trp-Gly-NH2]
- Reduction in TNF levels (TNF-α [1]; 30 μg/mouse ip): 50%
- Reduction in IL-6 levels (interleukin-6 (IL-6)): 60%
- Inhibition of LPS-induced Lethality (increase in survival) (LPS-induced lethality [2]): 83%
- Reduction in IL-1-induced Hyperalgesia (increase in tolerated paw pressure) [3]: 125%
- Reduction in LPS-induced PMN Count [4]: 58%
- Reduction in arachidonic acid-induced Ear Swelling [5]: 72%

Compound: CC(=O)N[C@H](C(=O)N[C@@H](CCC(N)=O)C(=O)N[C@@H](Cc1c[nH]cn1)C(=O)N[C@H](Cc1ccccc1)C(=O)N[C@@H](CCCNC(=N)N)C(=O)N[C@H](Cc1c[nH]c2ccccc12)C(=O)NCC(N)=O)C1CCCCC1 [EX-3, Ac-(cyclohexyl)Gly-Gln-His-(D)Phe-Arg-(D)Trp-Gly-NH2]
- Reduction in TNF levels (TNF-α [1]; 150 μg/mouse ip): 56%
- Inhibition of LPS-induced Lethality (increase in survival) (LPS-induced lethality [2]): 86%
- Reduction in arachidonic acid-induced Ear Swelling [5]: 62%
- percent reduction in TNF-α levels, oral (TNF-α [6]; 150 μg by gavage): 49%
- percent reduction in TNF-α levels, oral (TNF-α [6]; 300 μg by gavage): 40%

Compound: CC(=O)N[C@@H](Cc1c[nH]cn1)C(=O)N[C@H](Cc1ccccc1)C(=O)N[C@@H](CCCNC(=N)N)C(=O)N[C@H](Cc1c[nH]c2ccccc12)C(=O)NCC(N)=O [EX-4, Ac-His-(D)Phe-Arg-(D)Trp-Gly-NH2] (Ac-H[dF]R[dW]G-NH2)
- increase in survival, oral (LPS-induced lethality [7]; [8]): 63%
- percent reduction in TNF-α levels, oral (TNF-α [6]; 300 μg by gavage): 44%

Compound: CC(=O)N[C@@H](Cc1c[nH]cn1)C(=O)N[C@H](Cc1ccccc1)C(=O)N[C@@H](CCCNC(=N)N)C(=O)N[C@H](Cc1c[nH]c2ccccc12)C(N)=O [EX-5, Ac-His-(D)Phe-Arg-(D)Trp-NH2]
- increase in survival, oral (LPS-induced lethality [7]; 1.65 mg total (150 μg by gavage every 4 hr for 40 hr)): 68%
- increase in survival, oral (LPS-induced lethality [7]; [8]): 44%
